The structures appear in SMILES notation.

Test [1] concerns the target T1, Inosine-5'-monophosphate dehydrogenase 1 (Homo sapiens, UniProt P20839). Description: The compound was tested for the inhibition towards IMP(Inosine 5'-monophosphate) substrate of Inosine-5'-monophosphate dehydrogenase 1.
Test [2] addresses T1, Inosine-5'-monophosphate dehydrogenase 1. Briefly: The compound was tested for the inhibition towards […] (Nicotinamide adenine dinucleotide) substrate of Inosine-5'-monophosphate dehydrogenase 1.
For test [3], the target named is T2, Inosine-5'-monophosphate dehydrogenase 2 (Homo sapiens, UniProt P12268). Briefly: The compound was tested for the inhibition towards IMP(Inosine 5'-monophosphate) substrate of Inosine-5'-monophosphate dehydrogenase 2.
For test [4], the target named is T2, Inosine-5'-monophosphate dehydrogenase 2. Briefly: The compound was tested for the inhibition towards […] (Nicotinamide adenine dinucleotide) substrate of Inosine-5'-monophosphate dehydrogenase 2.

T1 sequence (P20839 whole entry): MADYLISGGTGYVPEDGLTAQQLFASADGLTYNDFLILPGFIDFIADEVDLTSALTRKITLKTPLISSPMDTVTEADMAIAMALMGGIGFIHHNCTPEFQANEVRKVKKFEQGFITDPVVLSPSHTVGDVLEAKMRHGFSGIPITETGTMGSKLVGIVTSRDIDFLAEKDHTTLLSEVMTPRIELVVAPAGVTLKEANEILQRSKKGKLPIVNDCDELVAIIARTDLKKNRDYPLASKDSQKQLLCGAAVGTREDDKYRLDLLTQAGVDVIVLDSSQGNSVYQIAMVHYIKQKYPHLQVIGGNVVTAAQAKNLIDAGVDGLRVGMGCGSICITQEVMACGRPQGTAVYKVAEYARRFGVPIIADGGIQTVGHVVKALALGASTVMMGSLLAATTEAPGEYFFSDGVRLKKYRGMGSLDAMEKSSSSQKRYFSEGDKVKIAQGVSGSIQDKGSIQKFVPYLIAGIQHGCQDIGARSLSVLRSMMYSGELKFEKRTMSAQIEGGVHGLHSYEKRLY

For `NC(=O)c1coc([C@@H]2O[C@H](COP(=O)(O)OP(=O)(O)OC[C@H]3O[C@@H](n4cnc5c(N)ncnc54)[C@H](O)[C@@H]3O)[C@@H](O)[C@H]2O)c1`, the Ki in test [1] was found to be 38000 nM; in test [2], 135000 nM; in test [3], 57900 nM; in test [4], 99100 nM.

Turning to `NC(=O)c1c[se]c([C@@H]2O[C@H](COP(=O)(O)OP(=O)(O)OC[C@H]3O[C@@H](n4cnc5c(N)ncnc54)[C@H](O)[C@@H]3O)[C@@H](O)[C@H]2O)c1`, the Ki in test [1] was 580 nM; in test [2], 260 nM; in test [3], 1100 nM; in test [4], 270 nM.

Turning to `NC(=O)c1csc([C@@H]2O[C@H](COP(=O)(O)OP(=O)(O)OC[C@H]3O[C@@H](n4cnc5c(N)ncnc54)[C@H](O)[C@@H]3O)[C@@H](O)[C@H]2O)c1`, the Ki in test [1] was 370 nM; in test [2] it was 340 nM; in test [3], 320 nM; in test [4], 340 nM.

As to `NC(=O)c1c[se]c([C@@H]2O[C@H](COP(=O)(O)OP(=O)(O)OC[C@H]3O[C@@H](n4cnc5c(N)ncnc54)[C@H](O)[C@@H]3O)[C@@H](O)[C@H]2O)n1`, the Ki in test [1] is 33 nM; in test [2] it was 62 nM; in test [3], 21 nM; in test [4] it was 26 nM.

For the origin of these results see ChEMBL document CHEMBL1131220, “Isosteric analogues of nicotinamide adenine dinucleotide derived from furanfurin, thiophenfurin, and selenophenfurin as mammalian inosine monophosphate dehydrogenase (type I and II) inhibitors” (J Med Chem, 1998).
